Data on one compound can be found in patent US8211470B2, “Method for preparing nano-scale or amorphous particle using solid fat as a solvent” (Bio-Synectics Inc., priority 2003, dated 2012).

This series is described as follows: Particle size of the final powder dispersed in distilled water, particle size analyzer (Mastersizer Microplus). It counts as physicochemical. The method, then: Next, the pressure inside the collecting reactor containing the sprayed solid powders was elevated to about 150 atm by adding carbon dioxide gas into the collecting reactor. The pressure inside the collecting reactor was constantly maintained to the pressure of 100 atm or more by controlling a vent valve of the collecting reactor, while continuously adding the carbon dioxide gas. Under the constantly maintained pressure, the cetyl alcohol used as a solid fat was extracted for 8 hours with the gas of the supercritical fluid to obtain 1.8 g of fat-removed fine solid particles. The particle size of the obtained powdered mixture was determined by a particle size analyzer (Mastersizer Microplus) by dispersing the obtained powdered mixture into distilled water, and the result was shown in Table 1.
30 g of cetyl alcohol and 2 g of ketoconazole were placed into a 250 ml volume beaker and heated to 80° C. with stirring until the mixture became completely melt to form a transparent liquid. After completely melting the mixture, additional stirring for about 10 minutes was further carried out for homogeneous mixing. Then, the melted mixture was poured into a stainless steel plate which was precooled to 10° C. or less for rapid cooling and solidifying, thereby obtaining the solid product in which the active ingredient was dispersed uniformly into the fat in the form of fine particles. […]

As for `CC(=O)N1CCN(c2ccc(OCC3COC(Cn4ccnc4)(c4ccc(Cl)cc4Cl)O3)cc2)CC1` (stereo not shown) [Raw material (Active ingredient), ketoconazole], the Average particle size is 10.41 μm.
